Results taken from doi:10.1101/2021.04.08.439011v1 (biorxiv, 2021).

Experiments:
Conditions in all cases: 0.1 µM; binder
ASK1 = ASK1 (Homo sapiens, UniProt Q99683)
MEK4 = MEK4 (Homo sapiens, UniProt P45985)
SYK = SYK (Homo sapiens, UniProt P43405)
FGFR3(G697C) = FGFR3(G697C) (Homo sapiens, UniProt P22607, G697C)
STK36 = STK36 (Homo sapiens, UniProt Q9NRP7)
CDC2L1 = CDC2L1 (Homo sapiens, UniProt P21127)
MAP3K12 = MAP3K12 (Homo sapiens, UniProt Q12852)
GRK7 = GRK7 (Homo sapiens, UniProt Q8WTQ7)
CAMKK1 = CAMKK1 (Homo sapiens, UniProt Q8N5S9)
ARK5 = ARK5 (Homo sapiens, UniProt O60285)
EPHA4 = EPHA4 (Homo sapiens, UniProt P54764)
YSK4 = YSK4 (Homo sapiens, UniProt Q56UN5)
ERK1 = ERK1 (Homo sapiens, UniProt P27361)
RIPK2 = RIPK2 (Homo sapiens, UniProt O43353)
AMPK-alpha1 = AMPK-alpha1 (Homo sapiens, UniProt Q13131)
PRKG1 = PRKG1 (Homo sapiens, UniProt Q13976)
ERBB4 = ERBB4 (Homo sapiens, UniProt Q15303)
ZAP70 = ZAP70 (Homo sapiens, UniProt P43403)
DRAK1 = DRAK1 (Homo sapiens, UniProt Q9UEE5)
RIOK1 = RIOK1 (Homo sapiens, UniProt Q9BRS2)
KIT(A829P) = KIT(A829P) (Homo sapiens, UniProt P10721, A829P)
AURKC = AURKC (Homo sapiens, UniProt Q9UQB9)
CSNK1D = CSNK1D (Homo sapiens, UniProt P48730)
DYRK2 = DYRK2 (Homo sapiens, UniProt Q92630)
GSK3A = GSK3A (Homo sapiens, UniProt P49840)
SRC = SRC (Homo sapiens, UniProt P12931)
GRK3 = GRK3 (Homo sapiens, UniProt P35626)
CDK19 = CDK19 (Homo sapiens, UniProt Q9BWU1)
KIT(V559D,V654A) = KIT(V559D,V654A) (Homo sapiens, UniProt P10721, V559D/V654A)
GRK4 = GRK4 (Homo sapiens, UniProt P32298)
LKB1 = LKB1 (Homo sapiens, UniProt Q15831)

Chain of MAP3K12 (Q12852 whole entry): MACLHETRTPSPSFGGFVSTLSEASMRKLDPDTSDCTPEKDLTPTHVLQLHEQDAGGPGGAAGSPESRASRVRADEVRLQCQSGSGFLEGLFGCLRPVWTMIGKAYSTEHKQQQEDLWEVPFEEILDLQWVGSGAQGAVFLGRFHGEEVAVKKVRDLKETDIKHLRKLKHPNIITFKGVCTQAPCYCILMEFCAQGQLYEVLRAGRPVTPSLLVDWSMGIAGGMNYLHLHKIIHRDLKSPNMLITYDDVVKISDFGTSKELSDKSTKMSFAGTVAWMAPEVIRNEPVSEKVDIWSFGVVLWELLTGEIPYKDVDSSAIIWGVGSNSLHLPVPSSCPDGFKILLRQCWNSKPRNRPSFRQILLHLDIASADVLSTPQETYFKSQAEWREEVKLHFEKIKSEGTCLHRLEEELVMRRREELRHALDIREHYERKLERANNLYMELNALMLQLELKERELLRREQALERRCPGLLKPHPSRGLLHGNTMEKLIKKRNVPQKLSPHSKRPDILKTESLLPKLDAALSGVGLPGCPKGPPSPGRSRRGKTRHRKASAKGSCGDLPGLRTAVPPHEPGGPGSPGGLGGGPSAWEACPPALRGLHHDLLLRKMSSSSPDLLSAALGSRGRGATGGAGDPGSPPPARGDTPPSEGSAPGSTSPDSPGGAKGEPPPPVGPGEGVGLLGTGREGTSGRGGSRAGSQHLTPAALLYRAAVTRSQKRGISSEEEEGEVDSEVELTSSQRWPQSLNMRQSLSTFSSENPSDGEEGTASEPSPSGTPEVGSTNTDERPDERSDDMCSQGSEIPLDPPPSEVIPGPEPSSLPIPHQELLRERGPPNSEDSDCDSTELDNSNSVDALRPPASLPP
Chain of AURKC (Q9UQB9 whole entry): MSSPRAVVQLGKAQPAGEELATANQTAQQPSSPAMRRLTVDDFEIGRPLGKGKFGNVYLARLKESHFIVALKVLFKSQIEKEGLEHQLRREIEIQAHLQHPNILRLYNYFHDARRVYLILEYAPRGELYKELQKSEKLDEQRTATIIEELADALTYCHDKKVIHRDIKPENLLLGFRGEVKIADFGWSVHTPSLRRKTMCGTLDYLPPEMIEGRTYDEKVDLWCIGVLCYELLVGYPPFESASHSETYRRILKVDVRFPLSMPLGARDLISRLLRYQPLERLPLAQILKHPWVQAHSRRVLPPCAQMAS
Chain of DRAK1 (Q9UEE5 whole entry): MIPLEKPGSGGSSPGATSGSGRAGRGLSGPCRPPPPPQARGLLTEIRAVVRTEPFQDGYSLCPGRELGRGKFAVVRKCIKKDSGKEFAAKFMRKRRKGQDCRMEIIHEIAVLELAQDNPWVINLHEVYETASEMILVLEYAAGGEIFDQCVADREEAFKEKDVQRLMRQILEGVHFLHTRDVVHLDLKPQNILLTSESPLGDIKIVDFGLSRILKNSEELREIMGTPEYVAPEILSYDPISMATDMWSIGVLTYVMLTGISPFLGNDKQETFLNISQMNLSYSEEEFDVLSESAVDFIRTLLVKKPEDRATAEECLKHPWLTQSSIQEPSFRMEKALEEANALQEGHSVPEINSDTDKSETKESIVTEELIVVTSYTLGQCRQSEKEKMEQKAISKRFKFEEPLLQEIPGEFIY
Chain of GRK3 (P35626 whole entry): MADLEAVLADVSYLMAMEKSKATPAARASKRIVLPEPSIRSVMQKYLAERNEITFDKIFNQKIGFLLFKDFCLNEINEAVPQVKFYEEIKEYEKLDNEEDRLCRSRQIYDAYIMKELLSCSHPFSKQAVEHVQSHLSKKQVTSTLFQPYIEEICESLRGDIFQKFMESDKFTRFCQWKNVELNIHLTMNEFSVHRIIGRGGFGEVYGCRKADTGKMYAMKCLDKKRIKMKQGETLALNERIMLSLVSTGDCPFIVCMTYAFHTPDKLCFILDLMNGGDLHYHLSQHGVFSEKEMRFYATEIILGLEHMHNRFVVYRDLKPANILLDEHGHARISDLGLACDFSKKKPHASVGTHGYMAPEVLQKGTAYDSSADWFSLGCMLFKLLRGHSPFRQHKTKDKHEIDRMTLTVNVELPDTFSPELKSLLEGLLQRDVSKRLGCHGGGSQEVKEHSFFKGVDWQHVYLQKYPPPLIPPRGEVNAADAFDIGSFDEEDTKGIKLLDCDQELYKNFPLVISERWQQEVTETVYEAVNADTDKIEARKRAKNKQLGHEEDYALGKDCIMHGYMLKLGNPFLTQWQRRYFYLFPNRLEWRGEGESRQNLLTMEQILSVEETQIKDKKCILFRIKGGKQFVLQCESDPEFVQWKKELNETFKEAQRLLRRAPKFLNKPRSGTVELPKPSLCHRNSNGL
Chain of CDK19 (Q9BWU1 whole entry): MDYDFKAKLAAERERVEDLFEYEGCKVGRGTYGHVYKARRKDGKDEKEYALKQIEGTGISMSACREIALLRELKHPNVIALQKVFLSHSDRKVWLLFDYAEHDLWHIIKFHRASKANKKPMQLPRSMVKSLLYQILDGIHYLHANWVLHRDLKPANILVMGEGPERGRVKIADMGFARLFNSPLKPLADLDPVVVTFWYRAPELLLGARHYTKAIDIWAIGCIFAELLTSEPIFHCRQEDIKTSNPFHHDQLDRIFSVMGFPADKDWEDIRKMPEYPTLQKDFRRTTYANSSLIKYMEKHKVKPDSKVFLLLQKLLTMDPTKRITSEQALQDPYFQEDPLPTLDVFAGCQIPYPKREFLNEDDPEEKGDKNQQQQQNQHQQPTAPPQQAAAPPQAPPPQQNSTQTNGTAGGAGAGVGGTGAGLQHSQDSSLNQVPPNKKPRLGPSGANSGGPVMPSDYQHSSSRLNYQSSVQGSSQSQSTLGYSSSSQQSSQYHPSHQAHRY
Chain of STK36 (Q9NRP7 whole entry): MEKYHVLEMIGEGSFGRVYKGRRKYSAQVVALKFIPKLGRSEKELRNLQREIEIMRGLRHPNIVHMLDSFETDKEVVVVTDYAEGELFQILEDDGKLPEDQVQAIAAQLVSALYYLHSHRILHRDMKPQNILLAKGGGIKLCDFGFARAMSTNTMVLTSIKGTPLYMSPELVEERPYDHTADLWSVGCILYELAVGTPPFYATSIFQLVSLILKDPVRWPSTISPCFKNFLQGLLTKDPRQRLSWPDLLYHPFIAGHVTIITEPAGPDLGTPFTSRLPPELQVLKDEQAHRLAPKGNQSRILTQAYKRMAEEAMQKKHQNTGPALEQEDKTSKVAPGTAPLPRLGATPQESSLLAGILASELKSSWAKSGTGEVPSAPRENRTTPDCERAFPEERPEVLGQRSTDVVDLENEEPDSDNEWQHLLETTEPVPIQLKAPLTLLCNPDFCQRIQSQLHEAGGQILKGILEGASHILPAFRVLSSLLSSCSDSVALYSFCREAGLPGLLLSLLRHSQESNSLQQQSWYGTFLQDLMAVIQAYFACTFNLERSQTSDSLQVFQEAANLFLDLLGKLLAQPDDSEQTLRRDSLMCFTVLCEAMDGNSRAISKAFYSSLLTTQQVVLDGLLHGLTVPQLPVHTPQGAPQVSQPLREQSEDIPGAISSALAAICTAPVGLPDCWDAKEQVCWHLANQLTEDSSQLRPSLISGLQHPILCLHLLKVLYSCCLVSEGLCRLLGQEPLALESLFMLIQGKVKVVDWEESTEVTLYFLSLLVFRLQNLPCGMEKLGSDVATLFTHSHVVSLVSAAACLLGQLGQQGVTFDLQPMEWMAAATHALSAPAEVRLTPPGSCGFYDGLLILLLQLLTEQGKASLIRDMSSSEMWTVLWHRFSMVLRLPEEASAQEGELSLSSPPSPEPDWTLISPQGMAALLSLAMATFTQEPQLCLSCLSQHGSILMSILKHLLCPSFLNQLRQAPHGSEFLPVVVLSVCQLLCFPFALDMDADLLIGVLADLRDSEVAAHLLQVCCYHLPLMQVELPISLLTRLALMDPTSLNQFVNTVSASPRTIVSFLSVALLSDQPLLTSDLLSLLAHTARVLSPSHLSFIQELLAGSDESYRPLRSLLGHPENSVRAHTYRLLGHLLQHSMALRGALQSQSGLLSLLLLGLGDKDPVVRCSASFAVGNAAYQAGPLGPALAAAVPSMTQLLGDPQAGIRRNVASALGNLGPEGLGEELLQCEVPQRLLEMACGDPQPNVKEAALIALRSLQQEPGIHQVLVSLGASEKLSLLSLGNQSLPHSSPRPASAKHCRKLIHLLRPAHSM
Chain of CSNK1D (P48730 whole entry): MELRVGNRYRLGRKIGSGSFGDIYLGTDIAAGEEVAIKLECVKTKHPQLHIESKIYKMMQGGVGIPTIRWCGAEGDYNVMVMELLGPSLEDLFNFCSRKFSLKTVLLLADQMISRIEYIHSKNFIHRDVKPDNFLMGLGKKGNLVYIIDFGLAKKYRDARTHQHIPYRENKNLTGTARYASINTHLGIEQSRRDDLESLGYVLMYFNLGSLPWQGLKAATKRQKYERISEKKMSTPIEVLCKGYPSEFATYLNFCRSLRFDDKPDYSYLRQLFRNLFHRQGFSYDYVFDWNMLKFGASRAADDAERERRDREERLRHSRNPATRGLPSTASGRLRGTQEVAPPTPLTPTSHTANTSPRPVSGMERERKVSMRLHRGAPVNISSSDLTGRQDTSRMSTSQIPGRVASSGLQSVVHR
Chain of MEK4 (P45985 whole entry): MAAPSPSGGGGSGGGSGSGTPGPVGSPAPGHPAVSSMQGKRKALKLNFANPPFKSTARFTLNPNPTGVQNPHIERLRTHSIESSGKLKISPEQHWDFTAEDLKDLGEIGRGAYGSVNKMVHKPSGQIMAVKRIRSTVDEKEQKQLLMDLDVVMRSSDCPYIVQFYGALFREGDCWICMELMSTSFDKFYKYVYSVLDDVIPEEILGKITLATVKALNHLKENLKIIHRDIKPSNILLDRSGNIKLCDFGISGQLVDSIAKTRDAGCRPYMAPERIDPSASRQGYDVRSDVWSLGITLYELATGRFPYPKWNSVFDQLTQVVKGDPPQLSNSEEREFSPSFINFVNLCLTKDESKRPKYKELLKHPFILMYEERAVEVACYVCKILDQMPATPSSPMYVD

CNc1ncc2cc(-c3ccc(-c4cccc(C)n4)cc3Cl)c(=O)n(C[C@H]3OC[C@H](N)CO3)c2n1 [compound 6, G-5555]
Percent Control (ASK1): 99%
Percent Control (MEK4): 49%
Percent Control (SYK): 100%
Percent Control (FGFR3(G697C)): 99%
Percent Control (STK36): 36%
Percent Control (CDC2L1): 100%
Percent Control (MAP3K12): 100%
Percent Control (GRK7): 89%
Percent Control (CAMKK1): 100%
Percent Control (ARK5): 87%
Percent Control (EPHA4): 100%
Percent Control (YSK4): 70%
Percent Control (ERK1): 100%
Percent Control (RIPK2): 100%
Percent Control (AMPK-alpha1): 95%
Percent Control (PRKG1): 100%
Percent Control (ERBB4): 100%
Percent Control (ZAP70): 100%
Percent Control (DRAK1): 79%
Percent Control (RIOK1): 100%
Percent Control (KIT(A829P)): 81%
Percent Control (AURKC): 37%
Percent Control (CSNK1D): 90%
Percent Control (DYRK2): 100%
Percent Control (GSK3A): 100%
Percent Control (SRC): 100%
Percent Control (GRK3): 83%
Percent Control (CDK19): 87%
Percent Control (KIT(V559D,V654A)): 77%
Percent Control (GRK4): 100%
Percent Control (LKB1): 100%
